Patent publication US20030078518A1, “Method of treating the skin of a subject” (priority 2001, published 2003)

How the values were obtained:
Type in all cases: in vivo, human
[1] = tested on: MMP-1; experiment: Study 2: MMP-1 ELISA in interstitial fluid, effect of supplementation; details: for Concentration of MMP-1 (log), MEAN: Supplement Yes
Description: (§1) The laser made four pores at each collection site.
(§2) The other skin analytes were measured in Study 2 using standard ELISA kits: MMP-1 (ELISA Cat # QIA55, Oncogene Research Products, Cambridge Mass.); Total IgE (ELISA Cat # RE59061, IBL, Hamburg, Germany distributed by KMI Diagnostics); Non Extraction IGF-1 (ELISA Cat # DSL-10-2800, Diagnostics Systems Laboratories, Webster Tex.); IL-1 RA (ELISA Cat # DRA00, R&D Systems, Minneapolis, Minn.); IL-1A (ELISA Cat # EH2IL1A, Pierce/Endogen, Rockford, Ill.).

[2] = tested on: IGF-1; experiment: Study 2: IGF-1 ELISA in interstitial fluid, effect of supplementation; details: Supplement Yes
Description: as §1, §2

[3] = tested on: IL-1A; experiment: Study 2: IL-1A ELISA in interstitial fluid, effect of supplementation; details: for Concentration of IL-1A (log), MEAN: Supplement Yes
Description: as §1, §2

[4] = tested on: IgE; experiment: Study 2: Total IgE ELISA in interstitial fluid, effect of supplementation; details: for Concentration of IgE (log), MEAN: Supplement Yes
Description: as §1, §2

[5] = tested on: IL-1 RA; experiment: Study 2: IL-1 RA ELISA in interstitial fluid, effect of supplementation; details: for Concentration of IL-1 RA (log), MEAN: Supplement Yes
Description: as §1, §2

O=C1O[C@H]([C@@H](O)CO)C(O)=C1O [Vitamin C]
Effect of vitamin C supplement on concentration of MMP-1 in ISF [1]: significantly increased
Concentration of MMP-1 (log), MEAN ([1]; sun-exposed site ISF): 0.64
Concentration of MMP-1 (log), MEAN ([1]; sun-protected site ISF): 0.91
Concentration of IGF-1, MEAN ([2]; sun-exposed site ISF): 76.83
Concentration of IGF-1, MEAN ([2]; sun-protected site ISF): 97.78
Effect of vitamin C supplement on concentration of IL-1A in ISF [3]: significantly increased
Concentration of IL-1A (log), MEAN ([3]; sun-exposed site ISF): 120.24
Concentration of IL-1A (log), MEAN ([3]; sun-protected site ISF): 191.5
Effect of vitamin C supplement on concentration of IgE in ISF [4]: significantly increased
Concentration of IgE (log), MEAN ([4]; sun-exposed site ISF): 4.94
Concentration of IgE (log), MEAN ([4]; sun-protected site ISF): 18.50
Effect of vitamin C supplement on concentration of IL-1 RA in ISF [5]: significantly increased
Concentration of IL-1 RA (log), MEAN ([5]; sun-exposed site ISF): 10140
Concentration of IL-1 RA (log), MEAN ([5]; sun-protected site ISF): 9492
